{"source": "patent US20060089410A1", "about": "“Combination of chemotherapeutic drugs for increasing antitumor activity” (Titan Pharmaceuticals, Inc., priority 2002, published 2006)", "test_system": "H522 NSCLC cell line", "experiment": "MTS growth inhibition assay, sequencing of Pivanex and docetaxel, H522", "type": "cell-based, human", "details": "after 24 hour exposure", "procedure": "Human Non-Small Cell Lung Carcinoma Cell Lines, H522 and NCI-H23, were evaluated for growth inhibitory activity of Pivanex, alone and in combination with the standard chemotherapeutic agent, docetaxel. Cells were treated for three days with Pivanex followed by 24 hours of exposure to docetaxel or the cells were treated for 24 hours with docetaxel followed by three days of exposure to Pivanex. The cell growth inhibition was judged at the end of the 4-day experiments by a standard staining technique using MTS tetrazolium vital stain. […]\nExponentially growing cells were harvested with trypsin (0.05%)/EDTA (0.02%) and re-suspended in fresh medium containing 10% FBS. […] Absorbance was documented on a Dynex HD microplate reader at a wavelength of 490 nm. IC50 values were determined by using the Prism® GraphPad software from 3 different tests, each of which involved 4 replicates for each dose determination. The data are presented as percent growth inhibition, where 0% represents the mean value in wells to which only vehicle (0.1% DMSO) was added and was calculated as follows: % Growth Inhibition=(1−(ODtest/ODvehicle))×100 where ODtest is the optical density of the tested sample, OD vehicle is the optical density of the vehicle in which each respected drug is dissolved. […]", "data": [{"compound": "CCCC(=O)OCOC(=O)C(C)(C)C", "note": "[Pivanex, pivaloyloxymethyl butyrate]", "values": [{"measurement": "cell growth with agent alone", "result": "steep increase in H522 cell growth"}]}]}
